Consider 1 molecule from paper PMC5760531, “Action Potential Recording and Pro-arrhythmia Risk Analysis in Human Ventricular Trabeculae” (Frontiers in Physiology, 2018).

For data set [1], the system named is human ventricular trabeculae. As to the kind of experiment: Action potential recording and pro-arrhythmic score analysis in human ventricular trabeculae (hVT).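 Further: sharp microelectrode action potential recordings at 37°C in Tyrode-perfused trabeculae, 4 cumulative concentrations each applied 31 min, values averaged over last 30 APs, vehicle 0.1% DMSO as control.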
The subject of data set [2] is human ventricular trabeculae. Set-up: method as in Page et al., 2016. The conditions noted are these: 0.1 uM; ref Page et al., 2016; cited from earlier work.
Setting [3] is: 1Hz, c1-c4: 1.5-, 5-, 15-, 150-FOLD free ETPC (0.002µM).
The mark [4] stands for this setting: 2Hz, c1-c4: 1.5-, 5-, 15-, 150-FOLD free ETPC (0.002µM).
[5] abbreviates: average raw data, 1Hz, c2-c5: 1.5-, 5-, 15-, 150-FOLD free ETPC (0.002µM).
The mark [6] stands for this setting: average raw data, 2Hz, c2-c5: 1.5-, 5-, 15-, 150-FOLD free ETPC (0.002µM).

Several values for one entry are separate records, joined by “and”; a condition that tells them apart may be missing. Equal values may be shown once.

For the molecule `CN(CCOc1ccc(NS(C)(=O)=O)cc1)CCc1ccc(NS(C)(=O)=O)cc1` [DOFETILIDE, Dofetilide], in data set [1] (0.003, 0.01, 0.03, and 0.3 μM, total of 4 trabeculae), the EAD entry was “without any EAD”. In data set [1] (setting [3]), the “Beat Escape incidence” value is 0%, the EADs incidence turned out to be 0% and the “Refractoriness Escape incidence” value stood at 0%. In data set [1] (setting [4]), the EADs incidence turned out to be 0% and the “Refractoriness Escape incidence” value amounted to 0%. Also, in data set [1] (setting [5]), the AMAX is 106 mV and 107 mV; the APD90 was 274 ms and 303 ms and 385 ms and 510 ms; the “Beat Escape” value is given as 0; the EADs stood at 0. Also, in data set [1] (setting [5]), the ERP was 0.43 and 0.47 and 0.52 and 0.59; the “Refractoriness Escape” value was determined as 0. In addition, in data set [1] (setting [6]), the AMAX was 102 mV and 100 mV and 101 mV; the APD90 was 216 ms and 251 ms and 296 ms and 411 ms; the EADs came to 0; the ERP was 0.44 and 0.49 and 0.52 and 0.56. The “Refractoriness Escape” value in data set [1] (setting [6]) was found to be 0. Also, the APD90 prolongation in data set [2] is listed as ~ 100%.
